The values that follow come from paper PMC2395599, “Low Dose Histone Deacetylase Inhibitor, Depsipeptide (FR901228), Promotes Adenoviral Transduction in Human Rhabdomyosarcoma Cell Lines” (Sarcoma, 2004).

Several values for one entry are separate records, joined by “and”; a condition that tells them apart may be missing. Identical values can stand only once.

The subject of assay [1] is RMS cell lines (RD4a, CTR, RH5, RH13, RH18, RH30). Particulars: 0.5 ng/ml, 72 h, six RMS cell lines, MTT, triplicate, DMSO controls.
A further assay relates to av integrin. The assay is described as follows: Semi-quantitative RT-PCR for αv integrin RNA expression in RMS cells. The format is cell-based, human. Particulars: 0.5 ng/ml, 72 h; for fold av integrin expression: Fig. 3b. The method, then:
(§1) Sarcoma, March 2004, VOL. 8, NO. […] Methods. […] Results. […] Conclusions. […] Human av integrin primers:8 sense 50 -[…] AGT and antisense 50 -CAGTG[…] […] Cells were harvested after 72 h of treatment. Cell number was determined using a colorimetric MTT assay. […] The cells were replenished with complete media. […] References 1. […] Science 1997; 275: 1320-3. 2. […] J Virol 2000; 74: 42-8. 3. […] Virology 2000; 268: 382-90. 4. Wickham TJ, Mathias P, Cheresh DA, Nemerow GR. […] Cell 1993; 73: 309-19. 5. […] J Biol Chem 2000; 275: 14729-35. 6. […]. […] Cancer Res 1998; 58: 5738-48. 7. […] Cancer Res 1999; 59: 325-30. 8. […] Cancer Res 2001; 61: 6328-30. 9. […] Cancer Res 2001; 61: 2953-60. 10. […] J Biol Chem 1997; 272: 6479-89. 11.

The test system of assay [2] is coxackie and adenovirus receptor (CAR). Description: Semi-quantitative RT-PCR for CAR RNA expression in RMS cells. The note with it: 0.5 ng/ml, 72 h; for fold CAR expression: Fig. 3a. It counts as cell-based, human. The method, then:
as §1

Assay [3] concerns acetylated histone H3 in CTR cells. The assay is described as follows: Western blot analysis for histone H3 acetylation. The format is cell-based, human. Particulars: CTR cell line, 0.5 ng/ml, 72 h, histone H3 loading control. The method, then: as §1
The test system of assay [4] is adenovirus AdU1 (GFP) uptake in RMS cell lines. The assay is described as follows: Adenoviral (AdU1) GFP expression in RMS cell lines pretreated with depsipeptide, Western blot densitometry. The format is cell-based, human. The note with it: 0.5 ng/ml 72 h pretreatment; for fold GFP expression: Fig. 2b. The method, then:
as §1
On the technique in general: In western blotting, separated proteins are transferred to a membrane and probed.

The mark [5] stands for this setting: range over four of six RMS cell lines, RT-PCR normalised to GAPDH.

As for `C/C=C1\NC(=O)[C@H]2CSSCC/C=C/[C@H](CC(=O)N[C@H](C(C)C)C(=O)N2)OC(=O)[C@H](C(C)C)NC1=O` [depsipeptide (FR901228), Depsipeptide (FR901228)], the “growth inhibition of RMS cells compared to controls” value in assay [1] is “less than 20%”. The “fold av integrin expression” value with av integrin (CTR) is 2.2 X and 2 X; in the assay with av integrin (RD4a), 1.3 X; in the assay with av integrin (RH5), 6.6 X; in the assay on av integrin (RH13) it was 6.9 X; with av integrin (RH18), 1.5 X; with av integrin (RH30), 1.1 X. Also, in the assay on av integrin (setting [5]), the “fold modulation of av integrin expression” value is on record as 1.5-6.9 fold. Moreover, the CAR expression entry in assay [2] (CTR) is recorded as “lack of CAR expression”. The “fold CAR expression” value was determined as 4.8 X in assay [2] (RD4a); 1.2 X in assay [2] (RH5); 3.3 X in assay [2] (RH13); 2.8 X in assay [2] (RH18); 8.1 X in assay [2] (RH30). In addition, the “fold increase in CAR expression compared to untreated cells” value in assay [2] (setting [5]) is 2.8-8.1 fold. In addition, the “acetylated histone H3” value in assay [3] was “increase in acetylated histone H3”. Further, the GFP protein expression entry in assay [4] (CTR) is “No GFP protein expression was detected”. The “fold GFP expression” value in assay [4] (RD4a) is reported as 2.7 X; in assay [4] (RH13), 2.8 X; in assay [4] (RH18) it was 7.8 X; in assay [4] (RH30), 8.6 X. For the same compound, the “fold GFP expression (adenoviral uptake)” value in assay [4] (RH5, Fig. 2b and text) was 2.6 X and 2.8 X.
